# Test results as given in ChEMBL document CHEMBL1201862, “PubChem BioAssay data set” (2004).
# Calls of active or inactive are those of the source. Non-standard residues stand in square brackets, D forms with d. Residues, ends and D or L forms follow the SMILES beside them. ξ: configuration not given here. *: point of attachment. Trx = NC[C@H]1CC[C@H](C(=O)O)CC1; Tic = O=C(O)[C@@H]1Cc2ccccc2CN1; Ile(3ξ) = CCC(C)[C@H](N)C(=O)O; Boc = CC(C)(C)OC(=O)*
# Assays:
# [1] = viability of PTEN-deleted HCT116 cells – cell-based, HCT116 PTEN knockout, dose response (AID 1047); type: functional;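 also: HCT116 colon tumor cells with PTEN knocked out; cells exposed to compound for 60 hours before readout; potency for loss of cell viability measured by luminescence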
# [2] = viability of HCT116 lacking mutant beta-catenin – cell-based, human colon tumor, dose response (AID 1045); type: functional;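 also: HCT116 colon tumor cells with beta catenin knocked out; cells exposed to compound for 60 hours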
# [3] = reduction of Shn3 3'UTR-driven luciferase in osteoblasts – cell-based, Clone20 osteoblasts, firefly luciferase, cherry-picked, dose response (AID 624132); type: functional;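 also: firefly luciferase luminescence from reporter carrying the Shn3 3'UTR in osteoblasts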
# [4] = loss of viability in HepG2 cells – cell-based, CellTiter-Glo, cherry-picked, cytotoxicity control for Shn3 inhibitor project, dose response (AID 624134); type: functional
# [5] = non-specific 3'UTR reporter inhibition in Clone20-Shn3RL – cell-based, Renilla luciferase, cherry-picked, counter-screen for Shn3 inhibitor project, dose response (AID 624133); type: functional
# [6] = target: Cytochrome P450 2C9 (Homo sapiens, UniProt P11712)
# Chain of Cytochrome P450 2C9 (P11712 whole entry): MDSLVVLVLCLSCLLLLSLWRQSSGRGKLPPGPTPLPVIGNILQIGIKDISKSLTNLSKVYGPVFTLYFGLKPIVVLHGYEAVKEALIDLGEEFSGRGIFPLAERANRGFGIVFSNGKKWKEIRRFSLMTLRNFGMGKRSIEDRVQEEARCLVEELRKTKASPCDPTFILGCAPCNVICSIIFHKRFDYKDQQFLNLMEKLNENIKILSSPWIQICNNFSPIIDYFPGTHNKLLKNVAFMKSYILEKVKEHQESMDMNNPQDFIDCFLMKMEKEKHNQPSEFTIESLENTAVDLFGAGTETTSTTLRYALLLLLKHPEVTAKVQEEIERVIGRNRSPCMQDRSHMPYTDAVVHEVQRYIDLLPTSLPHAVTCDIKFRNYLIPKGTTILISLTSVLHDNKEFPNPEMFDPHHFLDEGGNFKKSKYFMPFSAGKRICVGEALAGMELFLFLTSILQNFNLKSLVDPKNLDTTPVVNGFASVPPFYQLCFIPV
# [7] = target: Cytochrome P450 2D6 (Homo sapiens, UniProt P10635);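 also: CYP2D6 member of a cytochrome P450 panel assay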
# Chain of Cytochrome P450 2D6 (P10635 whole entry): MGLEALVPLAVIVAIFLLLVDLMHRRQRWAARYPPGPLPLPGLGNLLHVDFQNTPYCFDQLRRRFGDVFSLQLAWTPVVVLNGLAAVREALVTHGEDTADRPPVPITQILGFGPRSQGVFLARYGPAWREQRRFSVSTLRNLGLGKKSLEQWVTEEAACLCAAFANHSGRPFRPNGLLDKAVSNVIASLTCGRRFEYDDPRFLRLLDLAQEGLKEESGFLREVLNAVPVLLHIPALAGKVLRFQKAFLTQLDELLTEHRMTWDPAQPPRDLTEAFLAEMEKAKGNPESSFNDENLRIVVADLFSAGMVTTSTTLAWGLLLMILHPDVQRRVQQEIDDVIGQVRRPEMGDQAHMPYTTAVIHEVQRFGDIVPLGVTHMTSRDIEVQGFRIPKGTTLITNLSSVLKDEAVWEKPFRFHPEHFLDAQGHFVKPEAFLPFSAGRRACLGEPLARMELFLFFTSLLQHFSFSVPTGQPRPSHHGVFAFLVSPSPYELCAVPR
# [8] = target: Cytochrome P450 3A4 (Homo sapiens, UniProt P08684);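 also: CYP3A4 tested as one member of a cytochrome P450 panel screen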
# Chain of Cytochrome P450 3A4 (P08684 whole entry): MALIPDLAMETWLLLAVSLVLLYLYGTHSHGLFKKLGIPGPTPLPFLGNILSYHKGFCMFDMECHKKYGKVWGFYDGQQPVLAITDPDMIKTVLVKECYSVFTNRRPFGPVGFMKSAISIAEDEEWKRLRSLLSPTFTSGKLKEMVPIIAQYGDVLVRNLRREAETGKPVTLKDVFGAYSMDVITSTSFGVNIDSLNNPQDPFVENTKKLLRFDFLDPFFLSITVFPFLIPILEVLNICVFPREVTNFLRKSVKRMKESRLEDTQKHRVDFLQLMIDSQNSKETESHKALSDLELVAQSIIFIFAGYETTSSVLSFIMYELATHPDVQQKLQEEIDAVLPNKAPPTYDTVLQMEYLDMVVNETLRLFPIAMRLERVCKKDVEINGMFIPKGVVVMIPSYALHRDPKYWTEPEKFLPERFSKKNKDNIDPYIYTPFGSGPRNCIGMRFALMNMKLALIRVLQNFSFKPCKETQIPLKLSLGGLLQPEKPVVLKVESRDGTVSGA
# [9] = target: T1, Corticotropin-releasing factor receptor 2/Corticotropin-releasing factor-binding protein (Homo sapiens, UniProt P24387+Q13324); assay: activators of CRF receptor 2 with binding protein – uHTS hits, confirmation (AID 602473); type: functional; conditions: read-out: EC50_Mean
# T1 sequence (Q13324 whole entry): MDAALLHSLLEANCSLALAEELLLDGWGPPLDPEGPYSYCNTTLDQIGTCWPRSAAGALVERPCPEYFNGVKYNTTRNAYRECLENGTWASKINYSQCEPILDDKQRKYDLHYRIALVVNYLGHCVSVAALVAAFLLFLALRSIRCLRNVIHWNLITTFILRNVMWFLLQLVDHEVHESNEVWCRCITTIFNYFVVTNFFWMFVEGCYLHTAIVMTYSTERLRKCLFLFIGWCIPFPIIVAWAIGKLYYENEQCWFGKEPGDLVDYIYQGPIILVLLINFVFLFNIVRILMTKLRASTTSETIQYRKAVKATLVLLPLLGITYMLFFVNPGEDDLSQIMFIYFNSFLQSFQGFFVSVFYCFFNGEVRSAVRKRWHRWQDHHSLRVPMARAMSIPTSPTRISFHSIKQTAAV
# T1 sequence (P24387 whole entry): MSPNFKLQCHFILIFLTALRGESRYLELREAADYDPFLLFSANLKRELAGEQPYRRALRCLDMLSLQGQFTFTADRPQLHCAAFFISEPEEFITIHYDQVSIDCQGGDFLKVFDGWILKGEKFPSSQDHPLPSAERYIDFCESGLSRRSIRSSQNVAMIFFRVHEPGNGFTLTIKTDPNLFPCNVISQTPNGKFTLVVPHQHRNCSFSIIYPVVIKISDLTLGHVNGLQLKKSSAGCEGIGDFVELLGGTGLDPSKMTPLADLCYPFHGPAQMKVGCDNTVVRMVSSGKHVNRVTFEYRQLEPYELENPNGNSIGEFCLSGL
# [10] = target: T1, Corticotropin-releasing factor receptor 2/Corticotropin-releasing factor-binding protein; assay: Dose Response confirmation of uHTS hits for small molecule antagonists of the CRF-binding protein and CRF-R2 receptor complex.; type: functional; conditions: read-out: IC50_Mean
# [11] = target: T2, Carboxy-terminal domain RNA polymerase II polypeptide A small phosphatase 1 (Homo sapiens, UniProt Q9GZU7); assay: CTDSP1 inhibitors, concentration-response, biochemical, absorbance readout, ultra-high-throughput screen actives (AID 540297); type: functional
# T2 sequence (Q9GZU7 whole entry): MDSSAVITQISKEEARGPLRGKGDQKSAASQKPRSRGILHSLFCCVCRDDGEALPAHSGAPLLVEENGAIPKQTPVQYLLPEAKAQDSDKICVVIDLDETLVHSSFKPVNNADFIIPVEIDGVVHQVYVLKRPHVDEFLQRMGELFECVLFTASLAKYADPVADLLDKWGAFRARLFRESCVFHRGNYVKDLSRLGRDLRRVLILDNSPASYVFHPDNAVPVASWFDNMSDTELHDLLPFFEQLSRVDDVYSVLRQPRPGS
# [12] = target: T3, High affinity choline transporter 1 (Homo sapiens, UniProt Q9GZV3); assay: human choline transporter blockers, potency – cell-based, 5-point CRC, membrane potential dye, dose response (AID 504840); type: functional
# T3 sequence (Q9GZV3 whole entry): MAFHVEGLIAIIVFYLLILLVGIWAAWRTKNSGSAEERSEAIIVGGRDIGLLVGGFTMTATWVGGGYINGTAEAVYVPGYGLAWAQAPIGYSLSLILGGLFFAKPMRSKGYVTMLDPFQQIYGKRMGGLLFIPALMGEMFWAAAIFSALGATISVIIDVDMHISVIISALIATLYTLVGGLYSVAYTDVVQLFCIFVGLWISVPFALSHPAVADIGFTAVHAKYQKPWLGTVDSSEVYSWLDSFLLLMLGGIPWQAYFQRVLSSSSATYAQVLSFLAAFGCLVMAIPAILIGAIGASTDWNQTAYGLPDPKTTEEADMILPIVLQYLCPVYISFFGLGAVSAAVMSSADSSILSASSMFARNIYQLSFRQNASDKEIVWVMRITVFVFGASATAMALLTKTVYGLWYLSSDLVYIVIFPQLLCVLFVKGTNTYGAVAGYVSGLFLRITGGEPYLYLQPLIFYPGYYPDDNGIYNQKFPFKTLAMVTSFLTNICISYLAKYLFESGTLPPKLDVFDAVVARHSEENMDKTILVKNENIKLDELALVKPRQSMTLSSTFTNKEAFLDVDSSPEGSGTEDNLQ
# [13] = activation of miR-122 Renilla sensor silencing – cell-based, Huh7 psiCHECK-miR122, Renilla luciferase, cherry-picked, dose response (AID 651956); type: functional;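 also: huh7 hepatoma cells stably carrying a psiCHECK-2 miR-122 sensor plasmid; renilla luciferase signal reporting endogenous miR-122 activity after 48 h compound exposure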
# [14] = target: T4, DNA repair protein RAD52 homolog (Homo sapiens, UniProt P43351); type: functional, biochemical
# T4 sequence (P43351 whole entry): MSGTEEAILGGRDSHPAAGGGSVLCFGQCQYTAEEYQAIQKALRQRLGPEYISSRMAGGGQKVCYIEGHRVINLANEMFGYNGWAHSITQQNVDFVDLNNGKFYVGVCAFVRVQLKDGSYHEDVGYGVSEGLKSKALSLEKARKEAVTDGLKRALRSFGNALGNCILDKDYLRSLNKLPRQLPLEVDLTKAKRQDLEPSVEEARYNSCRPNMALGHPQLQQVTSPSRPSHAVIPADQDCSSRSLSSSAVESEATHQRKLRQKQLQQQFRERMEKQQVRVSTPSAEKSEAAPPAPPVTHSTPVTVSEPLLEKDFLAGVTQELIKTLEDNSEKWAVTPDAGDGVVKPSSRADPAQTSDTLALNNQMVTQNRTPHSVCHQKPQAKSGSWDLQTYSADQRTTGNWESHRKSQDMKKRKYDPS
structure (smiles),measurement,setting,value
COc1ccc(NC(=O)C(C)Sc2nnc3c4c(nc(-c5ccc(OC)cc5)n23)CC(C)(C)OC4)cc1 (stereo not given),EC50,[1],27 µM (active)
same,EC50,[2],58.9 µM (active)
O=C(N/N=C/c1ccccc1OC(=O)c1ccc2c(c1)OCO2)c1ccccc1,EC50,[1],20.9 µM (active)
same,EC50,[2],18.9 µM (active)
Cc1ccc(S(=O)(=O)N2C[C@@H]3CCCC[C@@H]3[C@@H](C)[C@H]2c2cn(Cc3ccccc3)c3ncccc23)cc1,AC50,[3],1.92 µM (active)
same,AC50,[4],2.47 µM (active)
same,AC50,[5],4.12 µM (active)
Cc1nc2cnc(Nc3ccccc3)nc2n(C)c1=O,AC50,[6],20 µM (inconclusive)
same,AC50,[7],39.8 µM (inconclusive)
same,AC50,[8],15.8 µM (inconclusive)
CCC(C)[C@H](NC(=O)[C@@H]1Cc2ccccc2CN1C(=O)OC(C)(C)C)C(=O)NC[C@H]1CC[C@H](C(=O)O)CC1 (stereo not given in full) (Boc-[Tic]-[Ile(3ξ)]-[Trx]-OH),EC50,[9],> 53 µM (inactive)
same,IC50,[10],> 47.1 µM (inactive)
COc1ccccc1N1CCN(C(=O)C2CCCN(S(=O)(=O)c3ccc4c(c3)CCCN4C(C)=O)C2)CC1 (stereo not given),AC50,[3],2.68 µM (active)
same,AC50,[4],50.9 µM (active)
same,AC50,[5],1.15 µM (active)
CCOc1ccc(C(=O)OCC(=O)Nc2cccnc2Cl)cc1OCC,EC50,[9],> 53 µM (inactive)
same,IC50,[10],> 47.1 µM (inactive)
O=C(O)c1cccc2c1C(=O)N(c1ccc3c(c1)Cc1ccccc1-3)C2=O,IC50,[11],7.59 µM (active)
O=C(NNC(=O)C1CCN(S(=O)(=O)c2ccc(Cl)cc2)CC1)c1ccccc1O,AC50,[3],18.5 µM (active)
same,AC50,[4],63.1 µM (active)
same,AC50,[5],6.86 µM (active)
CC(C)(C)NC(=O)C(c1ccc(O)cc1)N(Cc1ccc2c(c1)OCO2)C(=O)CCl (stereo not given),EC50,[9],> 53 µM (inactive)
same,IC50,[10],> 47.1 µM (inactive)
CCOc1ccc2nc(O)c(CN(Cc3cccs3)C(CC)c3nnnn3C(C)(C)CC)cc2c1 (stereo not given),EC50,[1],4.69 µM (active)
same,EC50,[2],5.11 µM (active)
O=C(NCCCO)C(=O)Nc1cc2c3c(c1)CCN3C(=O)CC2,EC50,[9],> 53 µM (inactive)
same,IC50,[10],> 47.1 µM (inactive)
CCc1ccc(N2C(=O)NC(=O)/C(=C\NCCN(CC)CC)C2=O)cc1,AC50,[3],> 70 µM (inactive)
same,AC50,[5],27.8 µM (active)
CC(C)COc1nc2ccccc2nc1N1CCN(C)CC1,IC50,[12],15.1 µM (active)
COc1cccc(-c2ccc3c(c2)O[C@H](CN(C)C(=O)C2CCOCC2)[C@H](C)CN([C@@H](C)CO)S3(=O)=O)c1,AC50,[13],6.42 µM (active)
O=C(N/N=C/c1cc(Cl)cc([N+](=O)[O-])c1O)c1cc(-c2ccccn2)nc2ccccc12,IC50,[11],1.85 µM (active)
O=C(O)CCNc1ccc(Cl)cc1,IC50,[11],16.9 µM (active)
O=C(Nc1ccccc1C(F)(F)F)NC1(C(=O)N2CCOCC2)CCCCC1,IC50,[11],4.66 µM (active)
Nc1ccc(CC(N)c2csc(Nc3ncccn3)n2)cc1 (stereo not given),AC50,[14],19.2 µM (active)
